Earlier results on one compound are cited in PubChem BioAssay AID1259409 (Chemical Carcinogenesis Research Information System (CCRIS), 2018).

Where “and” joins values, the source holds several entries; their conditions need not be identical. Identical values can stand only once.

The data set relates to rodent chemically induced tumor inhibition, incidence and multiplicity. Kind of data set: CCRIS tumor inhibitor studies. The conditions noted are these: for tumour outcome (control, treated, inhibition, significance): Carcinogen: 7,12-DIMETHYLBENZ[A]ANTHRACENE, 57-97-6.

For `COc1ccc2c(c1)c(CC(=O)O)c(C)n2C(=O)c1ccc(Cl)cc1`, the outcome is 32, 3, 91% (Carcinogen: 4-HYDROXYBUTYL(BUTYL)NITROSAMINE [3817-11-6], Dose [Inhibitor]: 20 MG/KG IN DIET 1 WK BEFORE CARCINOGEN (STUDY DURATION: 32 WK), Route [Inhibitor]: DIET, Species: MOUSE, Strain/Sex: B6D2F1/MALE, Target Tissue: Type of Lesion: BLADDER: CARCINOMA, Dose [Carcinogen]: 7.5 MG/WK FOR 12 WK); 66, 42, 36% (Carcinogen: 4-HYDROXYBUTYL(BUTYL)NITROSAMINE [3817-11-6], Dose [Inhibitor]: 20 MG/KG IN DIET 20 WK AFTER LAST CARCINOGEN DOSE (STUDY DURATION: 61 WK), Route [Inhibitor]: DIET, Species: MOUSE, Strain/Sex: B6D2F1/MALE, Target Tissue: Type of Lesion: BLADDER: CARCINOMA, Dose [Carcinogen]: 7.5 MG/WK FOR 12 WK); 31, 7, 77% (Carcinogen: 4-HYDROXYBUTYL(BUTYL)NITROSAMINE [3817-11-6], Dose [Inhibitor]: 20 MG/KG IN DIET FOR 30 WK AT 1 WK AFTER LAST CARCINOGEN TREATMENT (STUDY DURATION: 42 WK), Route [Inhibitor]: DIET, Species: MOUSE, Strain/Sex: B6D2F1/MALE, Target Tissue: Type of Lesion: BLADDER: CARCINOMA, Dose [Carcinogen]: 7.5 MG/WK FOR 12 WK); 28/29 (97%), 30/30 (100%), -3%, not significant at 21 wk; 20/20 (100%), 17/17 (1 (Carcinogen: ACETOXYMETHYL(METHYLNITROSAMINE), 56856-83-8, Dose [Inhibitor]: 0, 0.001% IN DRINKING WATER FOR 10 WK ADMINISTERED CONCURRENTLY WITH CARCINOGEN TREATMENT (STUDY DURATION: 31 WK), Route [Inhibitor]: ORAL, Species: RAT, Strain/Sex: SPRAGUE-DAWLEY/MALE, Target Tissue: Type of Lesion: LARGE BOWEL: TUMORS, Dose [Carcinogen]: 2 MG/KG BW 1/WK FOR 10 WK, Promoter: NONE USED); 28/29 (97%), 29/29 (100%), -3%, not significant at 21 wk; 20/20 (100%), 18/18 (1 (Carcinogen: ACETOXYMETHYL(METHYLNITROSAMINE), 56856-83-8, Dose [Inhibitor]: 0, 0.001% IN DRINKING WATER FOR 10 WK BEGINNING POST CARCINOGEN TREATMENT (STUDY DURATION: 31 WK), Route [Inhibitor]: ORAL, Species: RAT, Strain/Sex: SPRAGUE-DAWLEY/MALE, Target Tissue: Type of Lesion: LARGE BOWEL: TUMORS, Dose [Carcinogen]: 2 MG/KG BW 1/WK FOR 10 WK, Promoter: NONE USED); 28/29 (97%), 27/30 (90%), 7%, not significant at 21 wk; 20/20 (100%), 20/20 (100 (Carcinogen: ACETOXYMETHYL(METHYLNITROSAMINE), 56856-83-8, Dose [Inhibitor]: 0, 0.001% IN DRINKING WATER FOR 20 WK ADMINISTERED CONCURRENTLY WITH CARCINOGEN TREATMENT AND CONTINUED FOR 10 WK POST C, Route [Inhibitor]: ORAL, Species: RAT, Strain/Sex: SPRAGUE-DAWLEY/MALE, Target Tissue: Type of Lesion: LARGE BOWEL: TUMORS, Dose [Carcinogen]: 2 MG/KG BW 1/WK FOR 10 WK, Promoter: NONE USED). Besides, the “tumour outcome (control, treated, inhibition, significance)” value (Dose [Inhibitor]: 0, 0.004% IN 20% FAT DIET CONTAINING 0.5% LINOLEIC ACID BEGINNING 7 D POST CARCINOGEN DOSE AND CONTINUING FOR DURATION O, Route [Inhibitor]: ORAL, Species: RAT, Strain/Sex: SPRAGUE-DAWLEY/FEMALE, Target Tissue: Type of Lesion: MAMMARY GLAND: ADENOCARCINOMA, Dose [Carcinogen]: 5 MG AT 50-53 DAYS OF AGE, Promoter: NONE USED) is given as 56%, 62%, -11%, not calculated; the “tumour outcome (control, treated, inhibition, significance)” value (Dose [Inhibitor]: 0, 0.004% IN 20% FAT DIET CONTAINING 4% LINOLEIC ACID BEGINNING 7 D POST CARCINOGEN DOSE AND CONTINUING FOR DURATION OF, Route [Inhibitor]: ORAL, Species: RAT, Strain/Sex: SPRAGUE-DAWLEY/FEMALE, Target Tissue: Type of Lesion: MAMMARY GLAND: ADENOCARCINOMA, Dose [Carcinogen]: 5 MG AT 50-53 DAYS OF AGE, Promoter: NONE USED) is given as 53%, 39%, 26%, not calculated; the “tumour outcome (control, treated, inhibition, significance)” value (Dose [Inhibitor]: 0, 0.004% IN 20% FAT DIET CONTAINING 12% LINOLEIC ACID BEGINNING 7 D POST CARCINOGEN DOSE AND CONTINUING FOR DURATION OF, Route [Inhibitor]: ORAL, Species: RAT, Strain/Sex: SPRAGUE-DAWLEY/FEMALE, Target Tissue: Type of Lesion: MAMMARY GLAND: ADENOCARCINOMA, Dose [Carcinogen]: 5 MG AT 50-53 DAYS OF AGE, Promoter: NONE USED) is recorded as 69%, 50%, 28%, not calculated; the “tumour outcome (control, treated, inhibition, significance)” value (Dose [Inhibitor]: 0, 0.005% IN HIGH-FAT (20% CORN OIL) DIET BEGINNING 7 D POST CARCINOGEN DOSE (STUDY DURATION: 20 WK), Route [Inhibitor]: ORAL, Species: RAT, Strain/Sex: SPRAGUE-DAWLEY/FEMALE, Target Tissue: Type of Lesion: MAMMARY GLAND: ADENOCARCINOMA, Dose [Carcinogen]: 5 MG ONCE, Promoter: NONE USED) is 26/32 (81%), 10/33 (30%), 63%, not calculated; the “tumour outcome (control, treated, inhibition, significance)” value (Dose [Inhibitor]: 0, 0.005% IN HIGH-FAT DIET BEGINNING 7 D POST CARCINOGEN TREATMENT (STUDY DURATION: 48 WK), Route [Inhibitor]: ORAL, Species: RAT, Strain/Sex: SPRAGUE-DAWLEY/FEMALE, Target Tissue: Type of Lesion: MAMMARY GLAND: ADENOCARCINOMA, Dose [Carcinogen]: 5 MG ONCE AT 50 D OF AGE, Promoter: NONE USED) was 93%, 47%, 49%, p<0.01; the “tumour outcome (control, treated, inhibition, significance)” value (Dose [Inhibitor]: 0, 0.005% IN LOW-FAT (0.5% CORN OIL) DIET BEGINNING 7 D POST CARCINOGEN DOSE (STUDY DURATION: 20 WK), Route [Inhibitor]: ORAL, Species: RAT, Strain/Sex: SPRAGUE-DAWLEY/FEMALE, Target Tissue: Type of Lesion: MAMMARY GLAND: ADENOCARCINOMA, Dose [Carcinogen]: 5 MG ONCE, Promoter: NONE USED) is on record as 9/33 (27%), 11/32 (34%), -26%, not calculated. The “tumour outcome (control, treated, inhibition, significance)” value was 40%, 33%, 18%, not significant (Dose [Inhibitor]: 0, 0.005% IN LOW-FAT DIET BEGINNING 7 D POST CARCINOGEN TREATMENT (STUDY DURATION: 48 WK), Route [Inhibitor]: ORAL, Species: RAT, Strain/Sex: SPRAGUE-DAWLEY/FEMALE, Target Tissue: Type of Lesion: MAMMARY GLAND: ADENOCARCINOMA, Dose [Carcinogen]: 5 MG ONCE AT 50 D OF AGE, Promoter: NONE USED); 95%, 80%, 16%, not significant (Dose [Inhibitor]: 0, 0.1 UMOL 2/WK FOR 18 WK APPLIED 10-15 MIN PRIOR TO EACH PROMOTER DOSE (STUDY DURATION: 20 WK), Route [Inhibitor]: DERMAL, Species: MOUSE, Strain/Sex: CD-1/FEMALE, Target Tissue: Type of Lesion: SKIN: TUMOR, Dose [Carcinogen]: 200 NMOL ONCE, Promoter: 12-O-TETRADECANOYL-13-ACETATE, 16561-29-8); 100%, 95%, 5%, not significant (Dose [Inhibitor]: 0, 0.3 UMOL 2/WK FOR 18 WK APPLIED 10-15 MIN PRIOR TO EACH PROMOTER DOSE (STUDY DURATION: 20 WK), Route [Inhibitor]: DERMAL, Species: MOUSE, Strain/Sex: CD-1/FEMALE, Target Tissue: Type of Lesion: SKIN: TUMOR, Dose [Carcinogen]: 200 NMOL ONCE, Promoter: 12-O-TETRADECANOYL-13-ACETATE, 16561-29-8); 100%, 37%, 63%, p<0.001 (Dose [Inhibitor]: 0, 20 UG/ML IN DRINKING WATER 24 HR/D 3 D/WK FOR 26 WK BEGINNING AT 45 D OF AGE (STUDY DURATION: 26 WK), Route [Inhibitor]: ORAL, Species: RAT, Strain/Sex: SD/FEMALE, Target Tissue: Type of Lesion: MAMMARY GLAND: TUMOR, Dose [Carcinogen]: 10 UG/ANIMAL IN CORN OIL INTRAGASTRICALLY ON 45, 50, 55 D OF AGE); 44%, 41%, 7%, not significant and 59%, 38%, 36%, not significant (Dose [Inhibitor]: 0.004% DIET FOR 22 WK STARTING 3 D AFTER CARCINOGEN ADMINISTRATION (STUDY DURATION: 22 WK), Route [Inhibitor]: ORAL, Species: RAT, Strain/Sex: SPRAGUE-DAWLEY/FEMALE, Target Tissue: Type of Lesion: MAMMARY GLANDS: ADENOCARCINOMA, Dose [Carcinogen]: 5 MG ONCE, Promoter: NONE USED); 100%, 97%, 3%, not significant (Dose [Inhibitor]: 28 NMOL IN 0.2 ML ACETONE APPLIED 2/WK FOR 16 WK 5 HR BEFORE EACH PROMOTER APPLICATION BEGINNING 2 WK POST CARCINOGEN TR, Route [Inhibitor]: DERMAL, Species: MOUSE, Strain/Sex: CD-1/FEMALE, Target Tissue: Type of Lesion: SKIN: PAPILLOMA, Dose [Carcinogen]: 0.2 UMOL IN 0.2 ML ACETONE ONCE, Promoter: 12-O-TETRADECANOYLPHORBOL-13-ACETATE, 16561-29-8). Further, the “tumour outcome (control, treated, inhibition, significance)” value runs as follows: (Dose [Inhibitor]: 280 NMOL IN 0.2 ML ACETONE APPLIED 2/WK FOR 16 WK 5 HR BEFORE EACH PROMOTER APPLICATION BEGINNING 2 WK POST CARCINOGEN D, Route [Inhibitor]: DERMAL, Species: MOUSE, Strain/Sex: CD-1/FEMALE, Target Tissue: Type of Lesion: SKIN: PAPILLOMA, Dose [Carcinogen]: 0.2 UMOL IN 0.2 ML ACETONE ONCE, Promoter: 12-O-TETRADECANOYLPHORBOL-13-ACETATE, 16561-29-8) 100%, 88%, 12%, not significant; (Dose [Inhibitor]: 280 NMOL IN 0.2 ML ACETONE APPLIED 2/WK FOR 20 WK 2 HR BEFORE EACH PROMOTER APPLICATION BEGINNING 2 WK POST CARCINOGEN D, Route [Inhibitor]: DERMAL, Species: MOUSE, Strain/Sex: CD-1/FEMALE, Target Tissue: Type of Lesion: SKIN: PAPILLOMA, Dose [Carcinogen]: 0.2 UMOL IN 0.2 ML ACETONE ONCE, Promoter: 12-O-TETRADECANOYLPHORBOL-13-ACETATE, 16561-29-8) 90%, 84%, 7%, not significant.
